From patent publication US20200392107A1, “CYCLIC AMINE DERIVATIVE AND MEDICAL USE THEREOF” (Toray Industries, Inc., priority 2018, published 2020) come the findings set out here.

By inhibition is commonly meant the percentage by which the read-out fell short of the control.

The target in test [1] is T1, RORγ-LBD (GST-fused ligand-binding domain of RORγ) / coactivator TRAP220/DRIP-2 (Homo sapiens, UniProt P51449).
T1 construct: purchased Invitrogen
T1 sequence (P51449 269-508 limits assumed): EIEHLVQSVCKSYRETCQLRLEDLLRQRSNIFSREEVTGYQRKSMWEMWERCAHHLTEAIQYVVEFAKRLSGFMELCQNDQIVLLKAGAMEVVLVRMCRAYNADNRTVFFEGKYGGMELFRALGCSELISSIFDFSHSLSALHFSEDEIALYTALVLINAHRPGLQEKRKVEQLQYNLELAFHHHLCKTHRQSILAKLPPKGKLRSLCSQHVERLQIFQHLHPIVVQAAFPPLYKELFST
Put plainly: Inhibitory effect on RORγ-coactivator binding (LanthaScreen TR-FRET RORγ Coactivator Assay). Format: biochemical. The note with it: at 33 μmol/L of the test compound; read-out: RORγ-coactivator binding inhibition rate (%). On the procedure: The inhibitory effect of the cyclic amine derivative (I) or a pharmacologically acceptable salt thereof on the binding between a ligand-binding domain of RORγ (hereinafter referred to as RORγ-LBD) and a coactivator was evaluated using Invitrogen's LanthaScreen™ TR-FRET Retinoid-Related Orphan Receptor (ROR) gamma Coactivator Assay kit utilizing time-resolved fluorescence energy transfer (TR-FRET).
A test compound was dissolved in DMSO and diluted with TR-FRET Coregulator Buffer D (Invitrogen) containing 5 mmol/L of DTT to have a final DMSO concentration of 1% before use. To each well of a 384-well black plate (Corning Inc.), 4 nmol/L of GST-fused RORγ-LBD (Invitrogen) diluted with the buffer mentioned above and the test compound were added. A well without addition of the test compound and without addition of GST-fused RORγ-LBD (background) and a well without addition of the test compound and with addition of GST-fused RORγ-LBD (control) were prepared. Next, 150 nmol/L of fluorescein-labeled TRAP220/DRIP-2 (Invitrogen) diluted with the buffer mentioned above and 32 nmol/L of terbium-labeled anti-GST antibody (Invitrogen) were added to each well. After incubating the plate at room temperature for 16 to 24 hours, the fluorescence at 495 nm and 520 nm when excited at 320 nm was measured for each well and the ratio (fluorescence value at 520 nm/fluorescence value at 495 nm) was calculated.
The fold change with addition of the test compound (ratio with addition of the test compound/ratio of the background), the fold change of the control (ratio of the control/ratio of the background), and the fold change of the background (ratio of the background/ratio of the background) were calculated, and then the inhibition rate of binding between RORγ-LBD and a coactivator (hereinafter referred to as RORγ-coactivator binding inhibition rate) (%) was calculated from Formula (1):
RORγ-coactivator binding inhibition rate (%)=(1−((Fold change with addition of the test compound)−(Fold change of the background))/((Fold change of the control)−(Fold change of the background)))×100 (1).
(In TR-FRET formats the signal depends on donor and acceptor labels being close together.)

For test [2], the system named is IL-17 production in mouse splenocytes. Put plainly: Suppressive effect on IL-17 production by IL-23 stimulation in mouse splenocytes. It is filed as cell-based. The conditions noted are these: Splenocyte, 72 h, at 5 μmol/L of the test compound, human IL-23 10 ng/mL, cultured 3 days, read-out: IL-17 production inhibition rate (%). As to the method: Using mouse splenocytes, the suppressive effect of the cyclic amine derivative (I) or a pharmacologically acceptable salt thereof on IL-17 production by IL-23 stimulation was evaluated by a partially modified method mentioned in The Journal of Biological Chemistry, 2003, Vol. 278, No. 3, p. 1910-1914.
A single cell suspension was prepared from the spleen of C57BL/6J mice (male or female, 6 to 30 weeks old) (Charles River Laboratories Japan, Inc. or CLEA Japan, Inc.) and splenocytes were prepared using Histopaque-1083 (Sigma-Aldrich Japan). The culture medium was used by adding 10% FBS (Gibco), 50 U/mL of penicillin-50 μg/mL of streptomycin (Gibco), 50 μmol/L of 2-mercaptoethanol (Gibco), and 100 U/mL of human IL-2 (Cell Science & Technology Institute, Inc.) to RPMI1640 medium (Gibco). A test compound was dissolved in DMSO and then diluted with the culture medium to have a final concentration of DMSO of 0.1% before use. Splenocytes (3×10^5 cells/well) prepared in the culture medium were seeded in wells of a 96-well flat-bottom plate (Corning Incorporated), the test compound and 10 ng/mL of human IL-23 (R & D systems, Inc.) were added thereto, and the cells were cultured at 37° C. under 5% CO2 for 3 days. A well without addition of human IL-23 and without addition of the test compound and a well with addition of human IL-23 and without addition of the test compound were prepared. After completion of the culture, the culture supernatant was collected and the IL-17 production amount in the supernatant was determined by ELISA method (R & D systems, Inc.).
The IL-17 production inhibition rate (%) was calculated from Formula (2).
IL-17 production inhibition rate (%)=(1−((IL-17 production amount with addition of IL-23 and with addition of the test compound)−(IL-17 production amount without addition of IL-23 and without addition of the test compound))/((IL-17 production amount with addition of IL-23 and without addition of the test compound)−(IL-17 production amount without addition of IL-23 and without addition of the test compound)))×100 (2).

In the case of `CC(=O)N1CCCC[C@@H]1C(=O)Nc1ccc2c(c1)CCCN2Cc1ccc(C(F)(F)F)cc1` [Example 2, (R)-1-acetyl-N-(1-(4-(trifluoromethyl)benzyl)-1,2,3,4-tetrahy-droquinolin-6-yl)piperidine-2-carboxamide], the inhibition at 33 µM in test [1] amounted to 94.3%. Moreover, the inhibition at 5 µM in test [2] was 98.4%.
`CC(=O)N1CCCC[C@@H]1C(=O)Nc1cc(Cl)c2c(c1)CCN(Cc1ccc(C(F)(F)F)cc1)C2` [Example 3, (R)-1-acetyl-N-(8-chloro-2-(4-(trifluoromethyl)benzyl)-1,2,3,4-tetrahydroisoquinolin-6-yl)piperidine-2-carboxamide]: the inhibition at 33 µM in test [1] turned out to be 99.5%. Also, in test [2], the inhibition at 5 µM turned out to be 99.7%.
With `CC(=O)N1CCCC[C@@H]1C(=O)Nc1cc(Cl)c2c(c1)CCN2Cc1cccc(C(F)(F)F)c1` [Example 5, (R)-1-acetyl-N-(7-chloro-1-(3-(trifluoromethyl)benzyl)indolin-5-yl)piperidine-2-carboxamide], in test [1], the inhibition at 33 µM was found to be 87.9%. Also, in test [2], the inhibition at 5 µM was determined as 87.5%.
`CC(=O)N1CCCC[C@@H]1C(=O)Nc1cc(Cl)c2c(c1)CCN2Cc1ccccc1C(F)(F)F` [Example 6, (R)-1-acetyl-N-(7-chloro-1-(2-(trifluoromethyl)benzyl)indolin-5-yl)piperidine-2-carboxamide]: the inhibition at 33 µM in test [1] came out at 85.2%. Besides, the inhibition at 5 µM in test [2] worked out at 91.6%.
For `CC(=O)N1CCCC[C@@H]1C(=O)Nc1cc(Cl)c2c(c1)CCN2CCc1ccc(C(F)(F)F)cc1` [Example 7, (R)-1-acetyl-N-(7-chloro-1-(4-(trifluoromethyl)phenethyl)indolin-5-yl)piperidine-2-carboxamide], the inhibition at 33 µM in test [1] worked out at 96%. Besides, the inhibition at 5 µM in test [2] is 98.6%.
On the same counts, the results for `CC(=O)N1CCCC[C@@H]1C(=O)Nc1cc(Cl)c2c(c1)CCN2Cc1ccc(OC(F)(F)F)cc1` [Example 8, (R)-1-acetyl-N-(7-chloro-1-(4-(trifluoromethoxy)benzyl)in-dolin-5-yl)piperidine-2-carboxamide] are 99.4% and 100%.
On to `CC(=O)N1CCCCC1C(=O)Nc1cc(Cl)c2c(c1)CCN2Cc1ccc(C(F)(F)F)cc1` (centres unmarked) [Example 10, 1-acetyl-N-(7-chloro-1-(4-(trifluoromethyl)benzyl)indolin-5-yl)piperidine-2-carboxamide], for which the inhibition at 33 µM in test [1] turned out to be 99.8%. Besides, the inhibition at 5 µM in test [2] came to 99.5%.
